These results are taken from US8193430B2, “Methods for separating carbon nanotubes” (The University of Connecticut, priority 2008, dated 2012).

The structures appear in SMILES notation. ≈ marks a conversion by molar mass, not a printed value. Read-outs that look alike come from different tables or passages of the source.

Data set [1] can be described thus: Solubility of lumiflavin and FC12 in various solvents. Type of data set: physicochemical. The following applies: organic solvent or mixture. From the text:
The facile nanotube individualization and high QYs afforded by FC12 in certain solvents, begs the question why these solvents behave so differently. The answer to this question is believed to originate from the relative solubility differences of the two FC12 sub-moieties (i.e., isoalloxazine ring and dodecyl side chain). For this, we procured 10-methyl isoalloxazine (lumiflavin), the closest analogue to the isoalloxazine ring, and investigated its solubility characteristics versus that of FC12. Table 1 tabulates the solubilities of lumiflavin and FC12 as a function of dielectric constant (∈) of various solvents. […] As solvent polarity increases (i.e., ethylacetate, THF and acetone), their solubilities increase accordingly. […] Such behavior is believed to originate from the moderate-strong H-bonding ability of pyridine and DMF, capable of dissociating the H-bonded FC12 ribbon responsible for nanotube-dispersion. […] Two distinct regimes can be discerned, with high and low QYs for low and medium polarity solvents, respectively. For both regimes, the increase in FC12 solubility was followed by a decrease in QY. Since H-bonding is responsible for both helix stability and FC12/lumiflavine dissolution, increasing solvent polarity is expected to increase the helix dissociation constant and render FC12-wrapped nanotubes more prone to bundling and less capable to desorb 1,4-endoperoxide defects. On the basis of the observed aggregation tendencies, the low QYs in regime B appear to be dominated by nanotube bundling. In low-polarity solvents, the tight helical wrapping prevents nanotube bundling, which results in higher QY. Moreover, the proportionality of the helix dissociation constant to the FC12 solubility, explains the linear dependence of 1,4-endoperoxide defect removal along the one dimensional SWNT structure.

Data set [2] in a line: Solubility of riboflavin in neutral aqueous media (SWNT dispersion). Type of data set: physicochemical. As for the experimental part: A representative procedure for dispersing SWNTs with flavin mononucleotide (FMN), FAD and riboflavin involves a 4 hours cup horn sonication of SWNTs in H2O or D2O. This is followed by 2 hours of centrifugation at 15 kg, where the upper 70 to 80% of the supernatant was decanted for further investigation. As noted above, the FIG. 1 illustrates the chemical structure of riboflavin, FMN, and FAD used for such aqueous dispersion of SWNTs. While the basic flavin moiety is hydrophobic, these flavin derivatives have water-miscible tail groups. Such amphiphilic structures together with the aforementioned strong π-π interactions with both metallic and semiconducting SWNTs, can explain the effective nanotube dispersion in aqueous media.
FIG. 6 illustrates the UV-Vis-NIR spectra of HiPco dispersions with FMN, FAD, and riboflavin. The first (E11^S) and second (E22^S) optical transitions of semiconducting SWNTs can be witnessed in […] range, respectively. Those E11^S and E22^S features are clearly apparent for the FMN and FAD spectra, which are in good accordance with that of SDBS-dispersed HiPco SWNTs. […] Upon sonication of riboflavin-SWNT in basic media (pH 11), the resulting dispersions recover the aforementioned E11^S and E22^S features (data not shown), which indicates the successful dispersion of SWNTs. […]

On to `CCCCCCCCCCCCn1c2nc(=O)[nH]c(=O)c-2nc2cc(C)c(C)cc21` [FC12, 10-dodecyl-7,8-dimethyl-10H-benzo[g]pteridine-2,4-dione], for which the solubility (usually the concentration that dissolves in the medium under given conditions) in data set [1] (DMF (N,N-dimethyl formamide), in DMF, read-out: FC12 solubility) worked out at 22900 µg/mL (≈ 55700 µM); in data set [1] (THF (tetrahydrofuran), in THF, read-out: FC12 solubility), 11000 µg/mL (≈ 26900 µM); in data set [1] (in acetone, read-out: FC12 solubility), 1810 µg/mL (≈ 4410 µM); in data set [1] (in benzene, read-out: FC12 solubility), 310 µg/mL (≈ 755 µM); in data set [1] (in ethylacetate, read-out: FC12 solubility), 510 µg/mL (≈ 1240 µM); in data set [1] (in o-xylene, read-out: FC12 solubility) it was 250 µg/mL (≈ 609 µM). Besides, the solubility stood at 70400 µg/mL (≈ 171000 µM) in data set [1] (in pyridine, read-out: FC12 solubility) and 230 µg/mL (≈ 560 µM) in data set [1] (in toluene, read-out: FC12 solubility).

Consider `Cc1cc2nc3c(=O)[nH]c(=O)nc-3n(C[C@H](O)[C@H](O)[C@H](O)CO)c2cc1C` [riboflavin], for which, in data set [2], the “solubility in neutral aqueous media” value is “insolubility”.

Consider `Cc1cc2nc3c(=O)[nH]c(=O)nc-3n(C)c2cc1C` [Lumiflavin], for which the solubility in data set [1] (DMF (N,N-dimethyl formamide), in DMF, read-out: Lumiflavin solubility) was 317 µg/mL (≈ 1240 µM); in data set [1] (THF (tetrahydrofuran), in THF, read-out: Lumiflavin solubility), 46.2 µg/mL (≈ 180 µM); in data set [1] (in acetone, read-out: Lumiflavin solubility), 53.9 µg/mL (≈ 210 µM); in data set [1] (in benzene, read-out: Lumiflavin solubility) it was 4.4 µg/mL (≈ 17.2 µM); in data set [1] (in ethylacetate, read-out: Lumiflavin solubility), 14.1 µg/mL (≈ 55 µM); in data set [1] (in o-xylene, read-out: Lumiflavin solubility) it was 5.9 µg/mL (≈ 23 µM). Also, the solubility turned out to be 529 µg/mL (≈ 2060 µM) in data set [1] (in pyridine, read-out: Lumiflavin solubility) and 4.3 µg/mL (≈ 16.8 µM) in data set [1] (in toluene, read-out: Lumiflavin solubility).
